According to patent US8362031B2, “Lonidamine analogues and treatment of polycystic kidney disease” (University of Kansas, priority 2004, dated 2013):
“Also recorded” adds a separate entry of the source.

Experiments:
[1] = tested on: rats; assay: Toxicology: organs sectioned and examined after dosing; assay type: in vivo; settings: for Toxicology: liver, lung, pancreas, spleen, heart and kidney (histology): two animals examined, findings per animal; for Kidney (histology) / Liver and Pancreas (histology): single injection, sacrificed five days after injection, per animal
Method: In at least two of the animals in each group, the pancreas, right kidney and part of the liver, heart, spleen, and lung were removed and evaluated for toxic effects.
The toxicology of animals receiving some of the compounds of the present invention IP and/or oral was examined. At the time of sacrifice samples of liver, pancreas, heart, lung, spleen and kidney were removed, visually inspected, and immersion fixed in Bouin's solution for a minimum of 48 hours. All organs were then sectioned and examined for evidence of necrosis, inflammation, hemorrhage, and possible tumors. The major veins in each tissue were also examined for distention, especially in the liver and pancreas, and any other abnormalities are compared to known histopathological states. In addition to the above, the heart was examined for evidence of fibrosis in the muscular walls, and to compare the thickness of the ventricular walls. The pancreas was examined mainly for calcium deposits, while the lung was checked for signs of any exudates or hemorrhage, especially in the alveolar spaces. Finally, the kidney was examined mainly for microscopic hemorrhages, tubular necrosis or alterations in the glomeruli in the cortex.
In this example, the effects of RC-MC-30 were compared with those of lonidamine in sexually mature rats. As discussed above, each of the rats (8 total) received a single injection and were sacrificed five days after injection and examined.

[2] = tested on: Male Long Evans rats; assay: In vivo antispermatogenic testing in Long Evans rats; settings: for Mortality (25 mg/kg) / Response 25 mg/kg: 25 mg/kg single i.p. injection; for Response 25 mg/kg / Response 200 mg/kg: animals responding out of animals surviving, five days following injection; for Mortality (200 mg/kg) / Response 200 mg/kg: 200 mg/kg single i.p. injection
[3] = tested on: Salmonella Typhimurium TA 100; assay: Ames test for mutagenicity (plate assay, colony count); settings: 48 hours at 37° C.; for Ames test (+)S9 0.1 mg/pl. / Ames test (+)S9 1 mg/pl. / Ames test (+)S9 10 mg/pl.: (+)S9 mix; for Ames test (−)S9 0.1 mg/pl. / Ames test (−)S9 1 mg/pl. / Ames test (−)S9 10 mg/pl.: (−)S9 mix

SMILES	Mortality (25 mg/kg) [2]	Response 25 mg/kg [2]	Mortality (200 mg/kg) [2]	Response 200 mg/kg [2]	Ames test (+)S9 0.1 mg/pl. [3]	Ames test (+)S9 1 mg/pl. [3]	Ames test (+)S9 10 mg/pl. [3]	Ames test (−)S9 0.1 mg/pl. [3]	Ames test (−)S9 1 mg/pl. [3]	Ames test (−)S9 10 mg/pl. [3]	Toxicology: liver, lung, pancreas, spleen, heart and kidney (histology) ([1]; 25 mg/kg)	Toxicology: liver, lung, pancreas, spleen, heart and kidney (histology) ([1]; 200 mg/kg)	other results
NNC(=O)c1nn(Cc2ccc(Cl)cc2Cl)c2cc(F)ccc12 [JWS-1-160, 1-(2,4-dichlorobenzyl)-6-fluoro-1H-indazole-3-carboxylic acid hydrazide]	0/5	3/5	2/5	3/3	Pass	Pass	Pass	Pass	Pass	Pass	–	–	Toxicology: liver, lung, pancreas, spleen, heart and kidney (histology) ([1]; 25 mg/kg, listed as JSW-1-160): The kidney does have scattered, small patches of tubular necrosis in the inner cortex; also recorded: The liver had several distended veins, but no other abnormalities were noted; also recorded: liver, lung, pancreas, spleen, heart and kidney all appeared within normal limits; Toxicology: liver, lung, pancreas, spleen, heart and kidney (histology) ([1]; 200 mg/kg, listed as JSW-1-160): The kidney did have scattered, small patches of tubular necrosis in the inner cortex; also recorded: liver, lung, pancreas, spleen, heart and kidney all appeared within normal limits
O=C(O)/C=C/c1nn(Cc2ccc(Cl)cc2Cl)c2cc(F)ccc12 [JWS-1-170, 3-[1-(2,4-dichlorobenzyl)-6-fluoro-1H-indazol-3-yl]-acrylic acid]	0/5	3/5	0/5	3/3	Pass	Pass	Pass	Pass	Pass	Pass	liver, lung, pancreas, spleen, heart and kidney that appeared within normal limits	liver, lung, pancreas, spleen, heart and kidney all appeared within normal limits; also recorded: The liver did have moderate patches (5-10 cells in diameter) of necrosis mainly in the periportal areas	–
COC(=O)c1nn(Cc2ccc(Cl)cc2Cl)c2ccccc12 [RC-MC-30, 1-(2,4-dichlorobenzyl)indazole-3-carboxylic acid methyl ester]	0/5	3/5	0/5	4/5	Pass	Pass	Pass	Pass	Pass	Pass	–	–	Kidney (histology) ([1]; Dosage 25 mg/kg): Small areas with blood; Liver and Pancreas (histology) ([1]; Dosage 25 mg/kg): Non-remarkable,; Kidney (histology) ([1]; Dosage 200 mg/kg): Patchy hemorrhagic areas,; Liver and Pancreas (histology) ([1]; Dosage 200 mg/kg): Non-remarkable,
O=C(O)c1nn(Cc2ccc(Cl)cc2Cl)c2cc(C(F)(F)F)ccc12 [RC-MC-100, 1-(2,4-dichlorobenzyl)-6-trifluoromethyl-1H-indazole-3-carboxylic acid]	0/5	0/5	0/5	0/5	Pass	Pass	Pass	Pass	Pass	Pass	–	–	Clinical signs after IP injection ([1]; 200 mg/kg IP, five animals): all 5 animals tested became lethargic and ceased moving; also recorded: minor tremors in both hindlimbs which lasted approximately 30 minutes; also recorded: Two of the animals also had wet rales; Deaths after IP injection ([1]; 200 mg/kg IP, five animals): Three of the animals died 2-3 hours later; Recovery after IP injection ([1]; 200 mg/kg IP, five animals): the other two recovered and did not show any other symptoms
CCOC(=O)c1nn(Cc2ccc(Cl)cc2Cl)c2ccccc12 [RC-MC-156, 1-[(2,4-dichlorobenzyl)-1H-indazole]-3-carboxylic acid ethyl ester]	0/5	2/5	0/5	4/5	Pass	Pass	Pass	Pass	Pass	Pass	The lung did have scattered small, hemorrhagic patches, mainly in the alveolar and terminal bronchiole regions; also recorded: The lung showed widespread hemorrhagic regions throughout the alveoli and terminal bronchioles with small hemosiderin deposits around a few smaller bronchioles	liver, lung, pancreas, spleen, heart and kidney all appeared within normal limits; also recorded: The lung had small, scattered areas of hemorrhage mainly around the alveoli and small bronchioles; also recorded: The liver had small (4-5 cells in diameter) patches of necrosis scattered throughout the parenchyma	–
CCCOC(=O)c1nn(Cc2ccc(Cl)cc2Cl)c2ccccc12 [RC-MC-158, 1-[(2,4-dichlorobenzyl)-1H-indazole]-3-carboxylic acid propyl ester]	0/5	2/5	0/5	5/5	Mar-	Pass	Pass	Pass	Pass	Pass	liver, lung, pancreas, spleen, heart and kidney all appeared within normal limits; also recorded: The lung did have small scattered hemorrhagic areas, mainly around the alveoli and terminal bronchioles	The lung had multiple, large hemorrhagic areas, mainly in the alveolar regions with some hemosiderin deposits; also recorded: The lung contained multiple large hemorrhagic areas, mainly in the alveoli; also recorded: The liver contained small, scattered necrotic areas, generally around the portal veins	–
